Data reported in patent publication US11667632B2, “2-(1H-indazol-3-yl)-3H-imidazo[4,5-C]pyridines and their anti-inflammatory uses thereof” (BioSplice Therapeutics, Inc., priority 2015, dated 2023).

Tests used:
[1] = Plasma concentrations after a single intra-articular injection of radiolabeled Compound 10 in rats; format: in vivo, Sprague Dawley (SD) rats; conditions: SD rats, single IA injection 1 μg/knee
Method: Plasma concentration and distribution of Compound 10 following a single IA injection in Sprague Dawley (SD) rats were investigated in radiolabeled and mass balance studies with a tritium-labeled (^3H) Compound 10. [^3H]-Compound 10 was formulated as a suspension in 0.5% carboxymethylcellulose/0.05% polysorbate 80 for intra-articular (IA) injection and diluted with unlabeled Compound 10 to the appropriate concentration and injected in the rat knee joint at a dose level equivalent to 1 μg/knee.

[2] = Persistence of radiolabeled Compound 10 in rabbit knee joints; format: in vivo; conditions: rabbits; two single IA injections in two knees at 4 μg/knee; after 1 hour up to 168 hours
[3] = Persistence and half-life of radiolabeled Compound 10 in rat knee joints; format: in vivo; conditions: SD rats
Description: […] These same animals were used for the QWBA experiments (above).
On Day 180, only about ˜6.6% of administered dose was detected.

TNF-α = assay: Inhibition of TNF-α in LPS-stimulated primary PBMCs (ELISA, MSD U-plex); format: cell-based; conditions: human PBMCs, LPS (500 ng/mL), Compound 10 (150 nM), 24 hrs; MSD platform; FIG. 15
Method: (§1) Primary peripheral blood mononuclear cells (PBMCs) freshly isolated from healthy human donors were obtained from AllCells Inc. and utilized for assays immediately. Compound 10 was dissolved in DMSO as a 10 mM stock and used to prepare compound source plates. A serial dilution (8-point dose-response) and compound transfer was performed using the ECHO 550 (Labcyte, Sunnyvale, Calif.) into 96-well clear bottom assay plates (Greiner Bio-One) with appropriate DMSO backfill for a final DMSO concentration of 0.05%. PBMCs were plated at 2×10e^5 cells/well in Roswell Park Memorial Institute (RPMI) 1640 Medium (Catalog #21870-100, Buffalo, N.Y.) with 1% L-glutamine, 1% HEPES, 1% Sodium Pyruvate, 2% Sodium Bicarbonate supplemented with 100 units/mL penicillin, 50 μg/mL streptomycin and 1% fetal bovine serum (Catalog #16140089, Life Technologies, Carlsbad, Calif.). […]
(§2) Supernatants were diluted appropriately for ELISA. […] Following several washes to remove unbound avidin-HRP, the TMB substrate was added and the plates were read on the Cytation 3 plate reader (Biotek Inc., Winooski, Vt.) at an absorbance of 450 nm with correction at 570 nm. […] Inhibition profile and EC50 was calculated using Prism 5 (GraphPad Software Inc, La Jolla, Calif., USA). […] Levels of cytokines were calculated using software form Meso Scale Discovery.

IL-1β = assay: Inhibition of IL-1β in LPS-stimulated primary PBMCs (MSD U-plex); format: cell-based; conditions: human PBMCs, LPS (500 ng/mL), Compound 10 (150 nM), 24 hrs; MSD platform; FIG. 15
Method: as §1, §2

IL-2 = assay: Inhibition of IL-2 in LPS-stimulated primary PBMCs (MSD U-plex); format: cell-based; conditions: human PBMCs, LPS (500 ng/mL), Compound 10 (150 nM), 24 hrs; MSD platform; FIG. 15
Method: as §1, §2

IL-5 = assay: Inhibition of IL-5 in LPS-stimulated primary PBMCs (MSD U-plex); format: cell-based; conditions: human PBMCs, LPS (500 ng/mL), Compound 10 (150 nM), 24 hrs; MSD platform; FIG. 15
Method: as §1, §2

IL-6 = assay: Inhibition of IL-6 in LPS-stimulated primary PBMCs (ELISA, MSD U-plex); format: cell-based; conditions: human PBMCs, LPS (500 ng/mL), Compound 10 (150 nM), 24 hrs; MSD platform; FIG. 15
Method: as §1, §2

IL-8 = assay: Inhibition of IL-8 in LPS-stimulated primary PBMCs (MSD U-plex); format: cell-based; conditions: human PBMCs, LPS (500 ng/mL), Compound 10 (150 nM), 24 hrs; MSD platform; FIG. 15
Method: as §1, §2

[4] = time points Days 14-90 only, excluding Day 180

For `CC(C)CC(=O)Nc1cncc(-c2ccc3[nH]nc(-c4nc5c(-c6cccc(F)c6)cncc5[nH]4)c3c2)c1` [Compound 10], the “Mean radioactivity exposure AUC(0-inf)” value ([1]; females) was 1.818 ng-equiv.h/g, the “Mean radioactivity exposure AUC(0-t)” value ([1]; females) was 1.040 ng-equiv.h/g and the Tmax ([1]; females) was 4 h. For the same compound, the “apparent terminal elimination half-life in the blood” value ([1]; females) was 124 h, the “Mean radioactivity exposure AUC(0-inf.)” value ([1]; males) was 1.548 ng-equiv.h/g and the “Mean radioactivity exposure AUC(0-t)” value ([1]; males) was 0.832 ng-equiv.h/g. The Tmax ([1]; males) was 1 h, the “apparent terminal elimination half-life in the blood” value ([1]; males) was 57 h and the “administered radioactivity recovered in the knee” value [2] was 75%. The “mean % of administered dose per knee” value ([3]; 1 μg/knee IA, Day 14) was 64%, the “mean % of administered dose per knee” value ([3]; 1 μg/knee IA, Day 30) was 54% and the “mean % of administered dose per knee” value ([3]; 1 μg/knee IA, Day 60) was 42%. The “mean % of administered dose per knee” value ([3]; 1 μg/knee IA, Day 90) was 38%, the “% of administered dose detected in knee joint” value ([3]; 1 μg/knee IA, Day 180) was about 6.6% and the “detection in the knee joint space (radiographic images)” value ([3]; Day 180) was “still detectable”. For the same compound, the “elimination rate constant, Ke” value ([3]; all time points, Days 14-180) was 0.01342, the “half-life (T1/2) in the knee joint” value ([3]; all time points, Days 14-180) was 51.64 days and the “elimination rate constant, Ke” value [3, 4] was 0.00687. The “half-life (T1/2) in the knee joint” value [3, 4] was 100.9 days, the “administered radioactivity recovered in each knee joint” value ([3]; two IA injections at 1 μg/knee, 1 h post-IA injection up to 168 h) was 60-85% and the “Inhibition of TNF-α” value (TNF-α) was “Inhibition”. The “Inhibition of IL-1β” value (IL-1β) was “Inhibition”, the “Inhibition of IL-2” value (IL-2) was “Inhibition” and the “Inhibition of IL-5” value (IL-5) was “Inhibition”. For the same compound, the “Inhibition of IL-6” value (IL-6) was “Inhibition” and the “Inhibition of IL-8” value (IL-8) was “Inhibition”.
